The record followed here is the supplement of paper PMC11061612.

Holding throughout (test): combination Emax (second highest fraction inhibited in the dose matrix, 72 h); higher = more inhibition; extreme values may be limits of the assay
One experiment deals with ACHN (Kidney Carcinoma). In outline: (§1)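 Bliss excess equals the observed combination effect minus the expected value EA + EB − EA·EB, where EA and EB are the effects of each agent alone. Combination Emax is the second-highest inhibition within the matrix. Inhibition was scaled from CellTiter-Glo 2.0 luminescence, with 0 set by vehicle wells and 1 by blank wells, after 72 hours of two-drug dosing of cells plated in 1536-well plates.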

The subject of experiment [1] is BT-549 (Breast Carcinoma). An outline of the steps: as §1
Experiment [2] has as its system C-4-I (Cervical Carcinoma). An outline of the steps:
as §1

Experiment [3] concerns Ca9-22 (Head and Neck Carcinoma). In outline:
as §1

Another experiment deals with D-263MG (Glioblastoma). An outline of the steps: as §1
The subject of experiment [4] is EFM-19 (Breast Carcinoma). In outline:
as §1

Experiment [5] has as its system HOP-62 (Lung Adenocarcinoma). An outline of the steps:
as §1

Experiment [6] relates to Hs-766T (Pancreatic Carcinoma). An outline of the steps:
as §1

The test system of experiment [7] is KYSE-450 (Esophageal Squamous Cell Carcinoma). An outline of the steps:
as §1

For experiment [8], the system named is MIA-PaCa-2 (Pancreatic Carcinoma). An outline of the steps:
as §1

The next experiment has as its system NB69 (Neuroblastoma). In outline:
as §1

Experiment [9] concerns NCI-H727 (Other Solid Carcinomas). An outline of the steps: as §1
For experiment [10], the system named is NEC8 (Other Solid Carcinomas). In outline: as §1
For experiment [11], the system named is OSC-20 (Oral Cavity Carcinoma). An outline of the steps: as §1
Experiment [12] concerns PANC-04-03 (Pancreatic Carcinoma). An outline of the steps: as §1
Experiment [13] deals with RF-48 (B-Cell Non-Hodgkin's Lymphoma). In outline:
as §1

Experiment [14] has as its system SU8686 (Pancreatic Carcinoma). An outline of the steps: as §1
For the next experiment, the system named is TGW (Neuroblastoma). An outline of the steps: as §1
A further experiment relates to UACC-62 (Melanoma). An outline of the steps:
as §1

Experiment [15] has as its system VA-ES-BJ (Other Solid Carcinomas). In outline: as §1

Regarding `CS(=O)(=O)CCNCc1ccc(-c2ccc3ncnc(Nc4ccc(OCc5cccc(F)c5)c(Cl)c4)c3c2)o1` [Lapatinib] + C[C@@H](Oc1cc(-c2cnn(C3CCNCC3)c2)cnc1N)c1c(Cl)ccc(F)c1Cl [Crizotinib] (first compound max 10 µM, 7x7, partner max 10 µM), the “combination Emax” value in the experiment with ACHN (Kidney Carcinoma) turned out to be 0.781; in [1], 0.609; in experiment [2], 0.943; in experiment [3], 0.987; in the experiment on D-263MG (Glioblastoma), 0.595; in experiment [4], 0.554. In addition, the “combination Emax” value was 0.842 in experiment [5]; 0.319 in [6]; 0.869 in [7]; 0.96 in experiment [8]; 0.949 with NB69 (Neuroblastoma); 0.942 in experiment [9]. Besides, the “combination Emax” value in experiment [10] came out at 0.862; in experiment [11], 0.795; in experiment [12], 0.594; in experiment [13], 0.477; in experiment [14], 0.16; in the experiment on TGW (Neuroblastoma), 0.776. Besides, the “combination Emax” value in the experiment on UACC-62 (Melanoma) worked out at 0.66; in experiment [15], 0.756.
As for `CC(=O)c1c(C)c2cnc(Nc3ccc(N4CCNCC4)cn3)nc2n(C2CCCC2)c1=O` [Palbociclib] + CC1(C)CCC(CN2CCN(c3ccc(C(=O)NS(=O)(=O)c4ccc(NCC5CCOCC5)c([N+](=O)[O-])c4)c(Oc4cnc5[nH]ccc5c4)c3)CC2)=C(c2ccc(Cl)cc2)C1 [Venetoclax] (first compound max 10 µM, 7x7, partner max 1 µM), the “combination Emax” value amounted to 0.597 in the experiment with ACHN (Kidney Carcinoma); 0.308 in [1]; 0.0751 in experiment [2]; 0.2 in experiment [3]; 0.222 in the experiment with D-263MG (Glioblastoma); 0.0695 in [4]. Moreover, the “combination Emax” value in experiment [5] came to 0.251; in experiment [6], 0.149; in experiment [7], 0.126; in experiment [8], 0.31; in the experiment on NB69 (Neuroblastoma), 0.762; in experiment [9], 0.232. Also, the “combination Emax” value is 0.0159 in experiment [10]; 0.0423 in experiment [11]; 0.0967 in experiment [12]; 0.254 in [13]; 0.0346 in [14]; 0.226 with TGW (Neuroblastoma). Also, the “combination Emax” value with UACC-62 (Melanoma) was determined as 0.0969; in experiment [15], 0.257.
`CC(=O)c1c(C)c2cnc(Nc3ccc(N4CCNCC4)cn3)nc2n(C2CCCC2)c1=O` [Palbociclib] + Cc1c2c(nn1C)CSCc1cc(n(C)n1)CSc1cc(c3ccccc3c1)OCCCc1c(C(=O)O)n(C)c3c-2c(Cl)ccc13 [AZD5991] (first compound max 10 µM, 7x7, partner max 1 µM): the “combination Emax” value in the experiment on ACHN (Kidney Carcinoma) turned out to be 0.626; in [1], 0.455; in experiment [2], 0.896; in [3] it was 0.267; in the experiment on D-263MG (Glioblastoma), 0.612; in experiment [4], 0.255. The “combination Emax” value in experiment [5] was determined as 0.424; in experiment [6] it was 0.404; in experiment [7], 0.263; in experiment [8] it was 0.447; with NB69 (Neuroblastoma), 0.91; in experiment [9] it was 0.311. Besides, the “combination Emax” value is 0.277 in experiment [10]; 0.168 in experiment [11]; 0.196 in experiment [12]; 0.298 in [13]; 0.0791 in experiment [14]; 0.24 in the experiment on TGW (Neuroblastoma). Further, the “combination Emax” value with UACC-62 (Melanoma) is 0.588; in experiment [15], 0.283.
For `CC(=O)c1c(C)c2cnc(Nc3ccc(N4CCNCC4)cn3)nc2n(C2CCCC2)c1=O` [Palbociclib] + Cn1cnc2c(F)c(Nc3ccc(Br)cc3Cl)c(C(=O)NOCCO)cc21 [Selumetinib] (first compound max 10 µM, 7x7, partner max 10 µM), the “combination Emax” value in the experiment on ACHN (Kidney Carcinoma) stood at 0.606; in [1] it was 0.226; in [2], 0.349; in experiment [3], 0.458; with D-263MG (Glioblastoma) it was 0.265; in [4], 0.162. Also, the “combination Emax” value came out at 0.471 in experiment [5]; 0.465 in experiment [6]; 0.403 in experiment [7]; 0.604 in experiment [8]; 0.988 in the experiment with NB69 (Neuroblastoma); 0.636 in [9]. Besides, the “combination Emax” value in [10] came out at 0.0587; in [11] it was 0.182; in experiment [12], 0.404; in experiment [13], 0.277; in experiment [14], 0.173; in the experiment with TGW (Neuroblastoma) it was 0.342. Moreover, the “combination Emax” value in the experiment on UACC-62 (Melanoma) is 0.764; in experiment [15], 0.158.
Take `COc1cccc(OCCCN)c1-c1cc(Nc2cnc(C#N)cn2)n[nH]1` [Prexasertib] + C=CCn1c(=O)c2cnc(Nc3ccc(N4CCN(C)CC4)cc3)nc2n1-c1cccc(C(C)(C)O)n1 [AZD1775] (first compound max 1 µM, partner max 1 µM): the “combination Emax” value was 0.96 in the experiment with ACHN (Kidney Carcinoma); 0.845 in experiment [1]; 0.962 in experiment [2]; 1 in experiment [3]; 0.888 in the experiment with D-263MG (Glioblastoma); 0.62 in experiment [4]. The “combination Emax” value in [5] was 0.627; in experiment [6], 0.694; in [7], 0.999; in [8], 0.987; in the experiment with NB69 (Neuroblastoma), 1; in [9], 0.701. Also, the “combination Emax” value in experiment [10] amounted to 0.999; in experiment [11], 0.534; in experiment [12], 0.627; in [13], 0.786; in experiment [14] it was 0.531; with TGW (Neuroblastoma), 0.999. In addition, the “combination Emax” value with UACC-62 (Melanoma) is 0.798; in [15], 0.804.
As to `COc1cccc(OCCCN)c1-c1cc(Nc2cnc(C#N)cn2)n[nH]1` [Prexasertib] + CCc1c2c(nc3ccc(O)cc13)-c1cc3c(c(=O)n1C2)COC(=O)[C@]3(O)CC [SN-38] (first compound max 1 µM, 7x7, partner max 0.3 µM), the “combination Emax” value with ACHN (Kidney Carcinoma) worked out at 0.931; in experiment [1] it was 0.864; in [2] it was 0.999; in [3], 0.985; with D-263MG (Glioblastoma) it was 0.955; in experiment [4], 0.841. For the same molecule, the “combination Emax” value in [5] amounted to 0.843; in [6], 0.655; in [7], 0.996; in experiment [8] it was 0.999; in the experiment with NB69 (Neuroblastoma), 1; in [9] it was 0.696. Besides, the “combination Emax” value in experiment [10] was found to be 1; in experiment [11], 0.735; in experiment [12], 0.625; in experiment [13], 0.804; in experiment [14] it was 0.448; in the experiment with TGW (Neuroblastoma), 0.944. Further, the entries for the “combination Emax” value (with UACC-62 (Melanoma); in [15]) were 0.817 and 0.914, respectively.
Regarding `COc1cccc(OCCCN)c1-c1cc(Nc2cnc(C#N)cn2)n[nH]1` [Prexasertib] + CN(C)CCCOc1ccc(-c2ccc3ncc4c(c3c2)n(C2CCOCC2)c(=O)n4C)cn1 [AZD0156] (first compound max 1 µM, 7x7, partner max 1 µM), the “combination Emax” value in the experiment with ACHN (Kidney Carcinoma) came out at 0.926; in [1], 0.707; in [2], 0.915; in experiment [3] it was 1; with D-263MG (Glioblastoma) it was 0.915; in experiment [4], 0.28. The “combination Emax” value in experiment [5] worked out at 0.632; in experiment [6] it was 0.665; in [7], 0.615; in experiment [8], 0.754; in the experiment with NB69 (Neuroblastoma), 0.915; in [9], 0.717. Moreover, the “combination Emax” value in experiment [10] worked out at 0.986; in experiment [11], 0.584; in experiment [12], 0.564; in experiment [13], 0.744; in experiment [14], 0.525; in the experiment on TGW (Neuroblastoma), 0.964. In addition, the “combination Emax” value is 0.828 in the experiment with UACC-62 (Melanoma) and 0.766 in experiment [15].
